Results: patent US20100048400A1, “HERBICIDE COMBINATION” (BAYER CROPSCIENCE AG, priority 2007, published 2010)

Tests used:
Assay type in all cases: in vivo
Conditions in all cases: after four weeks, 0=no damage 100=complete damage
[1] = tested on: Digitaria sanguinalis; assay: Post-emergence action against weeds, Example 2: greenhouse, visual scoring of damage
Method: (§1) The plant species listed below were sown in Jiffy pots and cultivated in a greenhouse at a day/night rhythm of 22° C./14° C. At the 2-4-leaf stage, the plants were then treated with an aqueous solution of the compounds in question at the stated dosages. After four weeks, the results were scored visually using the following scheme: 0=no damage 100=complete damage AS/ha=active substance/hectare

[2] = tested on: Setaria viridis; assay: as above
Method: as §1

[3] = tested on: Polygonum convolvulus; assay: as above
Method: as §1

[4] = tested on: Abutilon theophrasti; assay: Post-emergence action against weeds, Example 3: greenhouse, visual scoring of damage
Method: as §1

[5] = tested on: Polygonum convolvulus; assay: as above
Method: as §1

Cc1ccc2c(c1)[C@H](Nc1nc(N)nc([C@@H](C)F)n1)CC2 [Compound B-22, 2-amino-4-[(1R)-6-methylindan-1-ylamino]-6-[(1R)-1-fluoroethyl]-1,3,5-triazine]
Damage DIGSA ([1]; 13 g of AS/ha): 24 | Damage DIGSA ([1]; 25 g of AS/ha): 55

Cc1ccc2c(c1)[C@H](Nc1nc(N)nc([C@@H](C)F)n1)[C@H](C)C2 (racemic) [Compound B-44, 2-amino-4-[(1RS,2RS)-2,6-dimethylindan-1-ylamino]-6-[(1RS)-1-fluorethyl]-1,3,5-triazine]
Damage SETVI ([2]; 13 g of AS/ha): 3 | Damage SETVI ([2]; 25 g of AS/ha): 5

Cc1ccc2c(c1)[C@H](Nc1nc(N)nc([C@@H](C)F)n1)[C@@H](C)C2 [Compound B-47, 2-amino-4-[(1R,2S)-2,6-dimethylindan-1-ylamino]-6-[(1R)-1-fluoroethyl]-1,3,5-triazine]
Damage POLCO ([3]; 13 g of AS/ha): 0 | Damage POLCO ([3]; 25 g of AS/ha): 0 | Damage ABUTH ([4]; 13 g of AS/ha): 5 | Damage ABUTH ([4]; 25 g of AS/ha): 15 | Damage POLCO ([5]; 13 g of AS/ha): 0 | Damage POLCO ([5]; 25 g of AS/ha): 0
